Measured values from ChEMBL document CHEMBL5291721, “A preclinical secondary pharmacology resource illuminates target-adverse drug reaction associations of marketed drugs” (Nat Commun, 2023).

Legend:
[1] = biological target: T1, Alpha-1A adrenergic receptor (Homo sapiens, UniProt P35348); assay type: functional, cell-based
T1 sequence (P35348 whole entry): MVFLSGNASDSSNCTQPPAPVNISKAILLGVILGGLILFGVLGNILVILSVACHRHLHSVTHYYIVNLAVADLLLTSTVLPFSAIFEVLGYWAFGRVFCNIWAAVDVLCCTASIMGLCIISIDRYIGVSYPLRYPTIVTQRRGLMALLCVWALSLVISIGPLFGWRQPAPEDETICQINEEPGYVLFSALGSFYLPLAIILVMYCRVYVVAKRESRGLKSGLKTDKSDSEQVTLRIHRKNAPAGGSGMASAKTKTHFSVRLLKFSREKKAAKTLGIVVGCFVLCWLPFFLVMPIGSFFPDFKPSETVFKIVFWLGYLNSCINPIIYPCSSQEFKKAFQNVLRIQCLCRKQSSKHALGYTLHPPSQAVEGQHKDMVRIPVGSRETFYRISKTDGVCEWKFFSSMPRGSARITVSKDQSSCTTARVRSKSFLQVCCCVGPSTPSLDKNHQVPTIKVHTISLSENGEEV

[2] = biological target: T2, Alpha-2A adrenergic receptor (Homo sapiens, UniProt P08913)
T2 sequence (P08913 whole entry): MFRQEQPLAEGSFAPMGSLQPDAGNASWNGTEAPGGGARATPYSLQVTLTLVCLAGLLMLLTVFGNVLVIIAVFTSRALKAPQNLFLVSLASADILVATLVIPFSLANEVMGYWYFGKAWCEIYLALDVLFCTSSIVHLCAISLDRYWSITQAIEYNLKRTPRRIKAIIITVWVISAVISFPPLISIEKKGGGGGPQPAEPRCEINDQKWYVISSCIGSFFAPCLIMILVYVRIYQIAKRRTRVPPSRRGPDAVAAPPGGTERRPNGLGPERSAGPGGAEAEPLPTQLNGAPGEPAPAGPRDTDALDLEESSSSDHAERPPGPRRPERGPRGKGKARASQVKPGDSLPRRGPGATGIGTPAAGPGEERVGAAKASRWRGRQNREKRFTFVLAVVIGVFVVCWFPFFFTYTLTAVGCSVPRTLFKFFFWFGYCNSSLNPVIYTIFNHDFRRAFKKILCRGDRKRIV

[3] = biological target: T3, Muscarinic acetylcholine receptor M1 (Homo sapiens, UniProt P11229); assay type: functional, cell-based
T3 sequence (P11229 whole entry): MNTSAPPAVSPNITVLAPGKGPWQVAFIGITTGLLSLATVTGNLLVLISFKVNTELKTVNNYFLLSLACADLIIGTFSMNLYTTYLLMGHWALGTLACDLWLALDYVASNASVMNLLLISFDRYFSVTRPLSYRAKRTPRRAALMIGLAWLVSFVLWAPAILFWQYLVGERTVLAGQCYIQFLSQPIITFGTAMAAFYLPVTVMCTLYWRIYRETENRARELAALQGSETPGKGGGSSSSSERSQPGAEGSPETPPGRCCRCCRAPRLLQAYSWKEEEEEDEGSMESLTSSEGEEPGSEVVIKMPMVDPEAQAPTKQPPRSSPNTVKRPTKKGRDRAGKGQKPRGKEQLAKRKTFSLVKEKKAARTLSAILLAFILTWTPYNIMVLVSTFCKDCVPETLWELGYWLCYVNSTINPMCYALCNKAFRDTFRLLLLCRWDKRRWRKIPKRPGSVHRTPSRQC

[4] = biological target: T3, Muscarinic acetylcholine receptor M1; assay type: functional, cell-based; remark: listed apart in the source
D(1A) dopamine receptor = D(1A) dopamine receptor (Homo sapiens, UniProt P21728)
Prothrombin = Prothrombin (Homo sapiens, UniProt P00734); assay type: functional
[5] = biological target: T4, 5-hydroxytryptamine receptor 1A (Homo sapiens, UniProt P08908)
T4 sequence (P08908 whole entry): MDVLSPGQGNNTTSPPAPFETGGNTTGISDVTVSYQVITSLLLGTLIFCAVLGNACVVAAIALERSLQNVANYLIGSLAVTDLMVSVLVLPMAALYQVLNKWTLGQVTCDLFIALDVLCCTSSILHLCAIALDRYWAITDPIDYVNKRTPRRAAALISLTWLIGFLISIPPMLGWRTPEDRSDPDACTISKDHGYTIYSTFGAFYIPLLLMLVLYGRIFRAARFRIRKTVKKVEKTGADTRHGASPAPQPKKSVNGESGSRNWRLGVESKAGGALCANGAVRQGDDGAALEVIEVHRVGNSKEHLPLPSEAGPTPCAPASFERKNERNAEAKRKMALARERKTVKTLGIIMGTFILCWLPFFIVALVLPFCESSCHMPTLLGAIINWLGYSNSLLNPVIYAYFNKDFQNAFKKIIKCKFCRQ

[6] = biological target: T5, Amine oxidase [flavin-containing] A (Homo sapiens, UniProt P21397); assay type: functional
T5 sequence (P21397 whole entry): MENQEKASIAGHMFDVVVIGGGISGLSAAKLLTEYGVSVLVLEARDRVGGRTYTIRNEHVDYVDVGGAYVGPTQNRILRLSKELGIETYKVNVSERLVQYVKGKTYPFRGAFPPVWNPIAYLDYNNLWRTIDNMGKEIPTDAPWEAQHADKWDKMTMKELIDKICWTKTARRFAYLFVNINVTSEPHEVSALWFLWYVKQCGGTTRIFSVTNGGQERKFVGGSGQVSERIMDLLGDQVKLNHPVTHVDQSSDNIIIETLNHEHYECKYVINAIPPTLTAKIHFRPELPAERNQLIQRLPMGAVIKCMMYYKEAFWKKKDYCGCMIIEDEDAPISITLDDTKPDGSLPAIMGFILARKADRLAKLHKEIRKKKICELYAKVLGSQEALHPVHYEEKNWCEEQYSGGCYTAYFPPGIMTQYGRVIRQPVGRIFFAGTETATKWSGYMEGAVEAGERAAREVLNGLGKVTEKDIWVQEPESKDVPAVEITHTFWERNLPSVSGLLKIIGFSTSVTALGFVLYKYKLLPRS

[7] = biological target: Sodium-dependent serotonin transporter (Homo sapiens, UniProt P31645)
Thromboxane A2 receptor = biological target: T6, Thromboxane A2 receptor (Homo sapiens, UniProt P21731); assay type: functional, cell-based
T6 sequence (P21731 whole entry): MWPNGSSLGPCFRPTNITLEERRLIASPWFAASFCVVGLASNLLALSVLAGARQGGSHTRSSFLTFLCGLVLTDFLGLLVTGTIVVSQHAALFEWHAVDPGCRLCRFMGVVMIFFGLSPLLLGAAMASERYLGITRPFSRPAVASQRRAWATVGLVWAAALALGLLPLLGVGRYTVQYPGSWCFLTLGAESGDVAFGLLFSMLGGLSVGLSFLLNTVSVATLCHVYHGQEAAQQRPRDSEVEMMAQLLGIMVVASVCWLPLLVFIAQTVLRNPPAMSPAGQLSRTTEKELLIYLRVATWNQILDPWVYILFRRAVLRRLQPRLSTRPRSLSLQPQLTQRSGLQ
Also: assay procedure not described here.

Sequence of D(1A) dopamine receptor (P21728 whole entry): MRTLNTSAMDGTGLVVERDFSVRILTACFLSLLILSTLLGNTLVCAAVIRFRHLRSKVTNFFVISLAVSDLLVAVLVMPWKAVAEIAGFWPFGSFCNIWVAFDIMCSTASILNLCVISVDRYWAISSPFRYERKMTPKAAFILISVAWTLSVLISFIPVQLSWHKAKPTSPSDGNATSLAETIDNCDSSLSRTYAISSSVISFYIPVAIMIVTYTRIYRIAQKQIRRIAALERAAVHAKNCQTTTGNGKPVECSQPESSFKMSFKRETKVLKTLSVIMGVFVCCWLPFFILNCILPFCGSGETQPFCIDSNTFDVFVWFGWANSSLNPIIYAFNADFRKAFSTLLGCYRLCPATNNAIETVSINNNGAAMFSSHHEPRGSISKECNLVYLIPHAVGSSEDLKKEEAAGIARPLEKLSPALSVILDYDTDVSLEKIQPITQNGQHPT
Sequence of Sodium-dependent serotonin transporter (P31645 whole entry): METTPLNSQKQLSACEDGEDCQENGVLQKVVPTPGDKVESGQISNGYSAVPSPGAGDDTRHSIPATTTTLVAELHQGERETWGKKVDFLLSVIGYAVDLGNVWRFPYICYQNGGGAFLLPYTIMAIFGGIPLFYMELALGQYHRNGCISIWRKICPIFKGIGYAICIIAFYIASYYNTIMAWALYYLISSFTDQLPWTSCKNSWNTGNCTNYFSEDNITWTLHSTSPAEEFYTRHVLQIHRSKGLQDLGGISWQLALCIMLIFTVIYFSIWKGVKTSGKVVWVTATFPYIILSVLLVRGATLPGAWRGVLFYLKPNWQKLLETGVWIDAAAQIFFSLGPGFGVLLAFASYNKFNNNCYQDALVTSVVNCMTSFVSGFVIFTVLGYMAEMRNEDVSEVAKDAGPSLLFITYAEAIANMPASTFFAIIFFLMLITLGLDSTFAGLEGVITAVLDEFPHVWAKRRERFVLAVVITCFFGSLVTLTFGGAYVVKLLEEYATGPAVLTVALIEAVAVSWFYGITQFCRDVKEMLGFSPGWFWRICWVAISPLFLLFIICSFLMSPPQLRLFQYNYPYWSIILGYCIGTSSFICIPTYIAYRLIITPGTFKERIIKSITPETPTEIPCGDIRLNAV

Row | Compound | AC50 [1] | AC50 [2] | AC50 [3] | AC50 [4] | AC50 (D(1A) dopamine receptor) | AC50 (Prothrombin) | AC50 [5] | AC50 [6] | AC50 [7] | AC50 (Thromboxane A2 receptor)
1 | CC(=O)Oc1c(C)c(C)c2c(c1C)CC[C@@](C)(CCC[C@H](C)CCC[C@H](C)CCCC(C)C)O2 | > 30 µM | > 30 µM | > 30 µM | > 30 µM | > 30 µM | > 30 µM | > 30 µM | > 30 µM | > 30 µM | > 30 µM
2 | CC(=O)OCC1=C(C(=O)O)N2C(=O)[C@@H](NC(=O)[C@H](N)c3ccccc3)[C@H]2SC1 [CEPHALOGLYCIN] | > 30 µM | > 30 µM | > 30 µM | > 30 µM | > 30 µM | > 30 µM | > 30 µM | > 30 µM | > 30 µM | > 30 µM
3 | OB1OCc2cc(F)ccc21 [TAVABOROLE] | > 30 µM | > 30 µM | > 30 µM | > 30 µM | > 30 µM | > 30 µM | > 30 µM | > 30 µM | > 30 µM | > 30 µM
4 | O=C(Nc1ccc(Cl)cc1)Nc1ccc(Cl)c(Cl)c1 [TRICLOCARBAN] | 2.44 µM | > 30 µM | > 30 µM | 0.702 µM | > 30 µM | > 30 µM | > 30 µM | > 30 µM | > 30 µM | > 30 µM
5 | COC1=C(OC)C(=O)C(C/C=C(\C)CC/C=C(\C)CC/C=C(\C)CC/C=C(\C)CC/C=C(\C)CC/C=C(\C)CC/C=C(\C)CC/C=C(\C)CC/C=C(\C)CCC=C(C)C)=C(C)C1=O [UBIDECARENONE] | > 30 µM | > 30 µM | > 30 µM | > 30 µM | > 30 µM | > 30 µM | > 30 µM | > 30 µM | > 30 µM | > 30 µM
6 | Clc1ccc(C(OCCN2CCCCC2)c2ccccc2)cc1 (stereo not given) [CLOPERASTINE] | 1.27 µM | 2.72 µM | > 30 µM | 0.551 µM | 5.96 µM | > 30 µM | 20.1 µM | > 30 µM | 15.4 µM | > 30 µM
7 | CCN(CC)CCNc1ccc(CO)c2sc3ccccc3c(=O)c12 [HYCANTHONE] | 1.4 µM | 1.73 µM | > 30 µM | 17.6 µM | > 30 µM | > 30 µM | 7.25 µM | > 30 µM | 16 µM | > 30 µM
8 | CC(=O)Oc1ccc2c(c1)CC[C@@H]1[C@@H]2CC[C@]2(C)[C@@H](O)CC[C@@H]12 [ESTRADIOL ACETATE] | 15 µM | > 30 µM | > 30 µM | 7.24 µM | > 30 µM | > 30 µM | > 30 µM | > 30 µM | > 30 µM | > 30 µM
9 | Nc1ccc(S(=O)(=O)c2cnc(N)s2)cc1 [THIAZOLSULFONE] | > 30 µM | > 30 µM | > 30 µM | > 30 µM | > 30 µM | > 30 µM | > 30 µM | > 30 µM | > 30 µM | > 30 µM
10 | CCCCCNC(=N)N/N=C/c1c[nH]c2ccc(OC)cc12 [TEGASEROD] | 1.16 µM | 0.92 µM | > 3 µM | > 3 µM | 0.73 µM | > 30 µM | 0.04 µM | 23.6 µM | 2.57 µM | > 3 µM
11 | CC(C)(C)C(=O)C(Oc1ccc(Cl)cc1)n1ccnc1 (stereo not given) [CLIMBAZOLE] | 25.6 µM | > 30 µM | > 30 µM | 10.2 µM | > 30 µM | > 30 µM | > 30 µM | > 30 µM | 29.7 µM | > 30 µM
12 | O=[N+]([O-])c1cn2c(n1)OC[C@@H](OCc1ccc(OC(F)(F)F)cc1)C2 [PRETOMANID] | > 10 µM | > 30 µM | > 30 µM | 10.6 µM | > 30 µM | > 30 µM | > 30 µM | > 30 µM | > 30 µM | > 30 µM
13 | CC(=O)c1ccc2c(c1)N(CCCN(C)C)c1ccccc1S2 [ACEPROMAZINE] | 0.003 µM | 0.418 µM | > 30 µM | 0.151 µM | 0.0259 µM | > 30 µM | 0.248 µM | > 30 µM | 0.145 µM | > 30 µM
